ChEMBL document CHEMBL4411258, “Novel natural compounds from endophytic fungi with anticancer activity” (Eur J Med Chem, 2018)
In brackets after ≈: the same amount, converted by molar mass. Values belong to the molecule of their own block, whether it stands above or below them.

How the values were obtained:
[1] = tested on: L5178Y; assay: Cytotoxicity against mouse L5178Y cells by MTT assay; assay type: functional, cell-based
[2] = tested on: A2780; assay: Cytotoxicity against human cisplatin-sensitive A2780 cells by MTT assay; assay type: functional, cell-based
[3] = tested on: OVCAR-3; assay: Cytotoxicity against human OVCAR3 cells assessed as reduction in cell viability after 72 hrs by CyQuant dye-based assay; assay type: functional; details: OVCAR-3, 72 h
[4] = tested on: HCT-116; assay: Cytotoxicity against human HCT116 cells after 48 hrs by sulforhodamine B assay; assay type: functional, cell-based; details: HCT-116, 48 h
[5] = tested on: MCF7; assay: Cytotoxicity against human MCF7 cells after 48 hrs by sulforhodamine B assay; assay type: functional, cell-based; details: Homo sapiens, MCF7, 48 h
[6] = tested on: NCI-H460; assay: Cytotoxicity against human NCI-H460 cells after 48 hrs by sulforhodamine B assay; assay type: functional, cell-based; details: Homo sapiens, NCI-H460, 48 h
[7] = tested on: Vero; assay: Cytotoxicity against African green monkey Vero cells; assay type: cell-based; details: Chlorocebus sabaeus
[8] = tested on: Vero; assay: Cytotoxicity against African green monkey Vero cells by resazurin microplate assay; assay type: cell-based; details: Chlorocebus sabaeus
[9] = tested on: MCF7; assay: Cytotoxicity against human MCF7 cells by resazurin microplate assay; assay type: functional, cell-based
[10] = Cytotoxicity against human KATO III cells after 72 hrs by MTT assay; assay type: functional, cell-based
[11] = tested on: NCI-H187; assay: Cytotoxicity against human NCI-H187 cells by resazurin microplate assay; assay type: functional, cell-based
[12] = target: DNA topoisomerase I (Bos taurus, UniProt F1MN93); assay: Inhibition of calf thymus DNA topoisomerase 1 assessed as decrease in relaxation of supercoiled pBR322 DNA after 30 mins by Genview nucleic acid staining based agarose gel electrophoresis
DNA topoisomerase I, sequence (F1MN93 whole entry): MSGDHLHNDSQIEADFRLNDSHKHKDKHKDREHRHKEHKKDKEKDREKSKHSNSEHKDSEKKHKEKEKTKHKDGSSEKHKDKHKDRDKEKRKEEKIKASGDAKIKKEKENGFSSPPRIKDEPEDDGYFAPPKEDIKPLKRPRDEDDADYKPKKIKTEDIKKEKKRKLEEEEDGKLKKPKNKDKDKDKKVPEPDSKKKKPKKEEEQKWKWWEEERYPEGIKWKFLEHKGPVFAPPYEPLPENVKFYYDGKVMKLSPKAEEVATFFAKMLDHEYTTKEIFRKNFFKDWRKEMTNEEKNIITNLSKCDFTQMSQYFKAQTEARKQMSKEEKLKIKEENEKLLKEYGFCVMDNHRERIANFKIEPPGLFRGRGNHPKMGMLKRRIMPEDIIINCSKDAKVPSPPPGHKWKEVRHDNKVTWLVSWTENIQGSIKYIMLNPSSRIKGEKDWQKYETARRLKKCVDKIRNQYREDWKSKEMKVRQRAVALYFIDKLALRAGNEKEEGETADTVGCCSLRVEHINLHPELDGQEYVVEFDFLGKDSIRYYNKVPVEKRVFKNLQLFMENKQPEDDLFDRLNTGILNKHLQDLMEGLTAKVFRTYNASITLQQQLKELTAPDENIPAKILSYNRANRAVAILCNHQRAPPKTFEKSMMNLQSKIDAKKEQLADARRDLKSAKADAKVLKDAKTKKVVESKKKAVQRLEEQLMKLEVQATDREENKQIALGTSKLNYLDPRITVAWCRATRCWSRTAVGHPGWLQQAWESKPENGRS

[13] = tested on: THP-1; assay: Cytotoxicity against human THP1 cells by MTS assay; assay type: functional, cell-based
[14] = tested on: HepG2; assay: Cytotoxicity against human HepG2 cells by MTS assay; assay type: functional, cell-based
[15] = tested on: HCT-116; assay: Cytotoxicity against human HCT116 cells by MTS assay; assay type: functional, cell-based
[16] = tested on: MDA-MB-231; assay: Cytotoxicity against human MDA-MB-231 cells by MTS assay; assay type: functional, cell-based
[17] = tested on: A549; assay: Cytotoxicity against human A549 cells by MTS assay; assay type: functional, cell-based
[18] = tested on: SW480; assay: Cytotoxicity against human SW480 cells by MTT assay; assay type: functional, cell-based
[19] = tested on: HeLa; assay: Cytotoxicity against human HeLa cells; assay type: functional, cell-based
[20] = tested on: A549; assay: Cytotoxicity against human A549 cells; assay type: functional, cell-based
[21] = tested on: HCT-116; assay: Cytotoxicity against human HCT116 cells; assay type: functional, cell-based
[22] = tested on: A549; assay: Cytotoxicity against human A549 cells after 48 hrs by MTT assay; assay type: functional, cell-based; details: Homo sapiens, A549, 48 h; read-out: IC50
[23] = tested on: HepG2; assay: Cytotoxicity against human HepG2 cells after 48 hrs by MTT assay; assay type: functional, cell-based; details: HepG2, 48 h
[24] = tested on: HCT-116; assay: Cytotoxicity against human HCT116 cells after 48 hrs by MTT assay; assay type: functional, cell-based; details: HCT-116, 48 h
[25] = tested on: MCF7; assay: Cytotoxicity against human MCF7 cells after 72 hrs by MTT assay; assay type: functional, cell-based; details: MCF7, 72 h
[26] = tested on: Caco-2; assay: Cytotoxicity against human Caco2 cells after 72 hrs by MTT assay; assay type: functional, cell-based; details: Caco-2, 72 h
[27] = tested on: MDA-MB-231; assay: Cytotoxicity against human MDA-MB-231 cells after 72 hrs by MTT assay; assay type: functional, cell-based; details: MDA-MB-231, 72 h
[28] = tested on: A2780; assay: Cytotoxicity against human A2780 cells after 72 hrs by MTT assay; assay type: functional, cell-based; details: A2780, 72 h
[29] = tested on: A2780cisR; assay: Cytotoxicity against human A2780cisR cells after 72 hrs by MTT assay; assay type: functional, cell-based
[30] = tested on: SMMC-7721; assay: Cytotoxicity against human SMMC7721 cells after 48 hrs by MTT assay; assay type: functional, cell-based; details: Homo sapiens, SMMC-7721, 48 h; read-out: IC50
[31] = tested on: SW480; assay: Cytotoxicity against human SW480 cells after 48 hrs by MTT assay; assay type: functional, cell-based; details: SW480, 48 h
[32] = tested on: MCF7; assay: Cytotoxicity against human MCF7 cells after 48 hrs by MTS assay; assay type: functional, cell-based; details: MCF7, 48 h
[33] = tested on: HL-60; assay: Cytotoxicity against human HL60 cells after 48 hrs by MTT assay; assay type: functional, cell-based; details: HL-60, 48 h
[34] = tested on: RPMI-8226; assay: Cytotoxicity against human RPMI8226 cells after 48 hrs by MTT assay; assay type: functional, cell-based; details: RPMI-8226, 48 h
[35] = tested on: HL-60; assay: Cytotoxicity against human HL60 cells; assay type: functional, cell-based
[36] = tested on: HeLa; assay: Cytotoxicity against human HeLa cells after 48 hrs by MTT assay; assay type: functional, cell-based
[37] = tested on: Bel-7402; assay: Cytotoxicity against human Bel7402 cells after 48 hrs by MTT assay; assay type: functional, cell-based; details: Bel-7402, 48 h
[38] = tested on: SK-LU-1; assay: Cytotoxicity against human SKLU1 cells by MTT assay; assay type: functional, cell-based
[39] = tested on: MCF7; assay: Cytotoxicity against human MCF7 cells by MTT assay; assay type: functional, cell-based
[40] = tested on: U-251; assay: Cytotoxicity against human U251 cells by MTT assay; assay type: functional, cell-based
[41] = tested on: HCT-15; assay: Cytotoxicity against human HCT15 cells by MTT assay; assay type: functional, cell-based
[42] = tested on: PC-3; assay: Cytotoxicity against human PC3 cells by MTT assay; assay type: functional, cell-based

SMILES: C=C1[C@@H](C)[C@H]2[C@H](Cc3ccc(O)cc3)NC(=O)[C@]23[C@H](O)/C=C/[C@@H](C)C[C@@H](C)C/C=C/[C@H]3[C@@H]1O
- IC50 [1]: 2.55 µM
- IC50 [2]: 6.97 µM

SMILES: CC1=CC[C@H]2C(C)(C)CCC[C@]2(C)[C@H]1C[C@@]12O[C@@H]1C(=O)C(CO)=C[C@H]2O
- IC50 [3]: 0.5 µM

SMILES: C/C=C/[C@@H]1OC(=O)C2=C[C@H](O)[C@@H](/C=C/C)O[C@H]21
- IC50 [4]: 6.2 µM
- IC50 [5]: 22.5 µM
- IC50 [6]: 1 µM

SMILES: C[C@H]1C/C=C/[C@H]2[C@@H]3O[C@]3(C)[C@@H](C)[C@H]3[C@H](Cc4ccc(O)cc4)NC(=O)[C@]32OC(=O)O/C=C/[C@@](C)(O)C1=O
- IC50 [7]: 1.19 µM

SMILES: CC(=O)O[C@H]1C=CC(=O)O[C@H]1[C@H]1[C@H]2C=CC=C[C@](O)(O2)[C@H]1C
- IC50 [8]: 1.95 to 40.2 µg/mL (≈ 6.37 to 131 µM)
- IC50 [9]: 1.95 to 40.2 µg/mL (≈ 6.37 to 131 µM)
- IC50 [10]: 1.95 to 40.2 µg/mL (≈ 6.37 to 131 µM)
- IC50 [11]: 1.95 to 40.2 µg/mL (≈ 6.37 to 131 µM)

- IC50 [12]: 23 µM
SMILES: Cc1cc(O)c2c(c1)[C@H](O)[C@H]1C=C[C@H](O)[C@@H](O)[C@@H]1C2=O

SMILES: CCOC(=O)c1c(O)cc(O)cc1CCCCCCCC(C)O (configuration not stated)
- IC50 [13]: 39.7 µM
- IC50 [14]: 12.5 µM
- IC50 [15]: 11.9 µM
- IC50 [16]: 10.1 µM
- IC50 [17]: 13.3 µM

SMILES: CC1=C(C=O)[C@@]2(C)CCCC(C)(C)[C@@H]2C[C@@H]1O
- IC50 [18]: 8.72 µM

SMILES: COC(=O)CC[C@@H](C(=O)OC/C=C(\C)CC/C=C(\C)CCC=C(C)C)N1Cc2c(cc(O)c(OC/C=C(\C)CC/C=C(\C)CCC=C(C)C)c2O)C1=O
- IC50 [19]: 4.77 µM
- IC50 [20]: 12 µM
- IC50 [21]: 33 µM

SMILES: COc1c(OC)c2c(c(OC)c1-c1c[nH]c3ccccc13)O[C@@H]1Nc3ccccc3[C@]21OC
- IC50 [22]: 3.5 µg/mL
- IC50 [23]: 2.5 µg/mL (≈ 5.62 µM)
- IC50 [24]: 6.4 µg/mL (≈ 14.4 µM)

SMILES: OCC(O)C(O)C(O)C(O)C(O)O[C@H]1[C@H](O)[C@@H](O)[C@H](O)O[C@@H]1CO (some centres not stated)
- EC50 [25]: 97.6 µM
- EC50 [26]: 99.4 µM
- EC50 [27]: 92.4 µM

SMILES: O=C1N2[C@H]3C(=CC=C[C@@H]3O)C[C@]23SS[C@]12C[C@H]1[C@@H]([C@@H](O)C=C[C@@H]1O)N2C3=O
- IC50 [28]: 0.664 µM
- IC50 [29]: 0.661 µM

SMILES: C[C@H]1[C@@H](/C=C2\C=CC(=O)O2)[C@H]2C=CC=C[C@@H]1O2
- IC50 [8]: 1.95 to 40.2 µg/mL (≈ 8.47 to 174 µM)
- IC50 [9]: 1.95 to 40.2 µg/mL (≈ 8.47 to 174 µM)
- IC50 [10]: 1.95 to 40.2 µg/mL (≈ 8.47 to 174 µM)
- IC50 [11]: 1.95 to 40.2 µg/mL (≈ 8.47 to 174 µM)

SMILES: COC(=O)C1=C[C@@H](C)C[C@H]2CC[C@@H](O)[C@@]12O
- IC50 [30]: 3.6 to 16.2 µM
- IC50 [22]: 3.6 to 16.2 µM
- IC50 [31]: 3.6 to 16.2 µM
- IC50 [32]: 3.6 to 16.2 µM
- IC50 [33]: 3.6 to 16.2 µM
- IC50 [34]: 3.6 to 16.2 µM

SMILES: COc1cc2c(c3c1Cc1c(cc(O)c(CO)c1C(=O)O)O3)C[C@H]1[C@H](C)CO[C@@]1(C)O2
- IC50 [35]: 12.4 µM

SMILES: COC(=O)[C@]1(OC)CCC(=O)N1Nc1ccc(OC)cc1OC
- IC50 [36]: 15.5 µM
- IC50 [37]: 8.1 µM

SMILES: COC(=O)[C@@]12Oc3c(c(O)cc4c3[C@@H]3CC[C@]5(C4)C(=C(O)c4c(O)cc(C)cc4[C@@H]5O)C3=O)C(=O)C1=C(O)C=C[C@H]2O
- IC50 [38]: 1.16 µM
- IC50 [39]: 7.93 µM
- IC50 [40]: 5.32 µM
- IC50 [41]: 10.3 µM
- IC50 [42]: 8.62 µM
